Laboratory results as given in patent US12186294B2, “Modulators of prostate-specific g-protein receptor (PSGR/OR51E2) and methods of using same” (Duke University, priority 2016, dated 2025).
Square brackets hold non-standard residues; d marks the D form. Peptide text beside a SMILES is read from it.

Key:
OR51E2 = molecular target: T1, OR51E2 (Homo sapiens, UniProt Q9H255); test: in vitro luciferase assay (CRE-Luc) in Hana3A cells transfected with OR51E2; type: cell-based; settings: for EC50: OR51E2 agonist, Hana3A cells, luciferase, read-out: EC50 (potency); for Efficacy: compared to the 1 mM PA response
T1 construct: expressed in transfected cells; host or cells: Hana3A cells (modified human embryonic kidney cells)
T1 sequence (Q9H255 1-320): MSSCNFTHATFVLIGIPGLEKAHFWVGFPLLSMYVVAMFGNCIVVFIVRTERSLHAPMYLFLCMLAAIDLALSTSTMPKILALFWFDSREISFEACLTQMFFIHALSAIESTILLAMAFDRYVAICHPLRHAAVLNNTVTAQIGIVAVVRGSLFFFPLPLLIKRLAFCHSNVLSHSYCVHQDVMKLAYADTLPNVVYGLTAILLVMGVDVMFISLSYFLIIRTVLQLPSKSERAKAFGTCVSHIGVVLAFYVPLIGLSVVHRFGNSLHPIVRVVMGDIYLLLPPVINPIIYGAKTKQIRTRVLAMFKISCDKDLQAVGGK
Experimental: Hana3A cells (modified human embryonic kidney cells) were cultured in 96 well plates in M10PSF medium. LNCaP human prostate cancer cells were cultured in both RPMI medium and androgen deprived RPMI medium. Hana3A cells were transfected with CRE-Luc (CREB-dependent luciferase (Firefly)) and SV40-RL promoter plasmids, and pCI and OR51E2 plasmids. […] Upon ligand binding, an increase in cAMP drives the expression of Firefly luciferase. Increase in luminescence signal was measured with a luminometer and Optima Data Analysis software. The luminescent signal is directly proportional to receptor activation. A general schematic of a luciferase assay is shown in FIG. 5 and a schematic of the assay used in this Example is shown in FIG. 6.
The top 56 compounds from the VLS list were tested using the in vitro expression and luciferase assay. […] The biologically relevant concentrations of each metabolite were individually determined based on available data in the literature. If no data were available, compounds were tested in the range of 1 nM-100 μM. Responses were normalized to the response with 1 mM propionic acid (PA), a previously identified agonist, and also to a response with no-control.

LNCaP cells [1] = test: cell viability/proliferation assay of LNCaP cells (CellTiter-Glo); type: cell-based, human; settings: 10 uM, 7 day incubation, vs untreated control
Experimental: The NEtD status was assessed through analysis of viability and proliferation of LNCap cells using use CellTiter-Glo Luminescent cell viability assay (Promega). […] Viability and proliferation assays will also be conducted with OR51E2 ligands in RWPE-2 cells.
Furthermore, a cell viability/proliferation assay of prostate cancer LNCaP cells was performed using 13-cis RA during a 7 day incubation period.

LNCaP cells [2] = settings: cited from earlier work
LNCaP cells [3] = test: RT-PCR assay of NED marker and OR51E2 transcript levels in LNCaP cells; type: cell-based, human
Experimental: To assess the differentiation status of LNCaP cells following treatment with an OR51E2 ligand, cells were exposed to the ligands for three days. Biological markers of NED were analyzed using an RT-PCR assay. The following markers were tested: neuron specific enolase (NSE) and α-methylacyl-CoA racemase (AMACR), an enzyme essential for isomerization of branched-chained fatty acids that is present at low levels in healthy prostate cells and increased in PCa and in NE-like cells. Furthermore, changes in the expression levels of OR51E2 and androgen receptor (AR) were determined. This experiment will also be conducted using RWPE-2 cells.
For example, 19-OH AD agonist treatment of LNCaP cells increased OR51E2 transcript levels. […] Further studies using siRNA gene knockdown assays, will determine whether activated/overexpressed OR51E2 is involved in NEtD.

LNCaP cells [4] = test: untargeted GC/MS metabolomics signatures of LNCaP cells treated with OR51E2 ligand; type: cell-based, human; settings: 72 hours, 100 nM 19-OH AD, 250 μM AFMK, 1 mM PA
Experimental: Metabolomics signatures were assessed using untargeted gas chromatography/mass spectrometry (GC/MS) to analyze LNCaP cells treated with an OR51E2 ligand for 3 days. There were six biological replicates for each treatment and the results were analyzed using MetaboAnalyst software. The same analysis will also be conducted using RWPE-2 cells.
GC/MS analysis detected greater than 250 features, and 115 of them were annotated. In FIG. 24A-24F, the top 15 metabolites are presented showing the most significant differences in cells treated with agonists when compared to control cells.

[5] = 12 days incubation with agonist, vs control

Row | SMILES | EC50 (OR51E2) | Efficacy (OR51E2) | other results
1 | C[C@]12CC[C@@H]3c4ccc(O)cc4CC[C@H]3[C@@H]1C[C@@H](O)[C@@H]2O [Estriol] | 53000 nM |  | 
2 | Cc1c(O)cc2c(c1C)OC(C)(CCC(=O)O)CC2 (stereo not drawn) [Gamma-CEHC] | 6.4 nM | 1.286 | 
3 | O=C(O)[C@@H](O)CO [L-Glyceric acid] | 1.9 nM |  | 
4 | CC1=C(/C=C/C(C)=C/C=C/C(C)=C\C(=O)O)C(C)(C)CCC1 [13-cis RA, 13-cis retinoic acid] |  |  | LNCaP growth (LNCaP cells [1]): effectively impeded; LNCaP cell growth and tumorigenic potential (LNCaP cells [2]; Dahiya et al. (1994)): inhibits cell growth and decreases tumorigenic potential; OR51E2 transcript levels (LNCaP cells [3]; 10 μM, 3 days, vs control cells): significantly decreased; IC50 (OR51E2; responses normalized to 1 mM PA, read-out: IC50 (OR51E2 antagonist)): 160 nM
5 | OC[C@H]1O[C@H](O[C@H]2C(O)O[C@H](CO)[C@@H](O)[C@@H]2O)[C@H](O)[C@@H](O)[C@@H]1O (stereo partly drawn) [Kojibiose] | 1000 nM | 0.790 | 
6 | CC(=O)N[C@@H](CCC(=O)O)C(=O)O [N-Acetylglutamic acid] | 0.23 nM |  | 
7 | CCC(=O)O [PA, propionic acid] |  |  | metabolite differences relative to controls (GC/MS) (LNCaP cells [4]): significant differences relative to controls; AMACR transcript levels (LNCaP cells [3]; [5]): increased; NSE transcript levels (LNCaP cells [3]; [5]): increased
8 | C[C@]12CC[C@H]3[C@@H](CCC4=CC(=O)CC[C@@]43CO)[C@@H]1CCC2=O [19-OH AD, 19-hydroxyandrost-4-ene-3,17-dione] | 0.15 nM | 0.890 | metabolite differences relative to controls (GC/MS) (LNCaP cells [4]): significant differences relative to controls; OR51E2 transcript levels (LNCaP cells [3]; [5]): increased
9 | COc1ccc(NC=O)c(C(=O)CCNC(C)=O)c1 [AFMK, N-acetyl-N-formyl-5-metoxykynurenamine] | 12000 nM | 1.483 | metabolite differences relative to controls (GC/MS) (LNCaP cells [4]): significant differences relative to controls
10 | O=C1CCCN1 [2-Pyrrolidinone] | 1.9 nM | 0.525 | 
11 | NCC(=O)NCC(=O)O [Glycylglycine] (H-Gly-Gly-OH) | 11000 nM |  | 
12 | NCC(=O)O [Glycine] |  | 0.613 | 
13 | C[C@]12CCC(=O)CC1CC[C@@H]1[C@@H]2CC[C@]2(C)C(=O)CC[C@@H]12 (stereo partly drawn) [Androstanedione] | 0.79 nM | 0.888 | 
14 | CCCCCCCCCCCCCCCC(=O)O [Palmitic acid] | 9.8 nM | 0.927 | 
15 | Nc1ncnc2c1ncn2C1OC(CO)C2OP(=O)(O)OC21 (stereo not drawn) [Adenosine 2′,3′-cyclic phosphate] | 26 nM | 1.025 | 
16 | CC(=O)/C=C/C1=C(C)CCCC1(C)C [beta ionone, beta-ionone] |  |  | proliferation of LNCaP cells (LNCaP cells [2]; Neuhaus et al. (2009), OR51E2/PSGR activation): decreased
17 | O=C(O)C(=O)CO [Hydroxypyruvic acid] | 420 nM | 1.100 | 
18 | C[C@@H](N)C(=O)N[C@H](C)C(=O)O [D-Alanyl-d-alanine] (H-[dA]-[dA]-OH) | 14000 nM |  | 
19 | C[C@]12CC[C@H]3[C@@H](CCC4=CC(=O)CC[C@@]43C)[C@@H]1CC[C@H]2O [Epitestosterone] | 0.69 nM | 0.477 | 
20 | NC(N)=O [Urea] | 23 nM | 0.580 | 
